{"source": "patent US20230117757A1", "about": "“COENZYME Q PRODUCTION ACCELERATOR AND METHOD FOR ACCELERATING COENZYME Q PRODUCTION” (priority 2020, published 2023)", "test_system": "HEK293 cells (human embryonic kidney cells)", "assay": "coenzyme Q10 production in mitochondria of HEK293 cells cultured with nicotinamide mononucleotide, quantified by LC-MS", "format": "cell-based", "settings": "HEK293 cells cultured three days in DMEM medium with 1 mM or 2.5 mM β-nicotinamide mononucleotide daily added; control 0 mM", "method": "To examine a production promoting effect of coenzyme Q10 caused by nicotinamide mononucleotide, HEK293 cells (human embryonic kidney cells) were cultured for three days (37° C., 5% CO2) in DMEM medium containing β-nicotinamide mononucleotide with a predetermined concentration (0 mM (control), 1 mM, and 2.5 mM daily added). Three days after the first day of culture, mitochondria were isolated from the HEK293 cells, and contained amounts of each of the reduced form (ubiquinol) and the oxidized form (ubiquinone) of coenzyme Q10 in the mitochondria were quantified by LC-MS method (LC column: KINETEX C18 column (Phenomenex), MS: Shimadzu LCMS-8060 (Shimadzu Corporation), eluent: 10 mM ammonium formate in Methanol, flow rate: 0.5 mL/minute, detection: MS/MS analysis by multiple reaction monitoring (MRM) method; Q10H2 883.6→197.15 m/z, Q10 881.4→197.15 m/z, Q9H2 815.6→197.15 m/z, Q9 813.6→197.15 m/z, Q8H2 747.6→197.15 m/z, Q8 745.6→197.15 m/z) (column: ODS, column temperature: 40° C., eluent: 70% acetonitrile/methanol (1:1) and 30% 0.05 M ammonium formate (prepared to be pH 7.2 with 10% ammonia water), flow rate: 1.0 mL/minute, detection: UV276 nm). […]", "data": [{"molecule": "NC(=O)c1ccc[n+]([C@@H]2O[C@H](COP(=O)(O)O)[C@@H](O)[C@H]2O)c1", "note": "[nicotinamide mononucleotide]", "values": [{"measurement": "sum amount of the reduced form and the oxidized form of coenzyme Q10 in the mitochondria, change vs control", "value": "approximately doubled"}]}]}
